Data taken from ChEMBL document CHEMBL1131475, “Discovery of ritonavir, a potent inhibitor of HIV protease with high oral bioavailability and clinical efficacy” (J Med Chem, 1998).

Tests used:
in vivo [1] = details: rat, plasma, iv
in vivo [2] = details: rat, plasma, po
in vivo [3] = details: rat, plasma, po; remark: listed apart in the source
in vivo [4] = details: rat, plasma, po, 10 mg/kg
[5] = Oral bioavailability in rat; type: ADME, organism-based; details: in vivo
Rattus norvegicus = organism: Rattus norvegicus; experiment: Plasma T1/2 in rat; type: ADME, organism-based; details: in vivo

Compound: CC(C)c1nc(CN(C)C(=O)NC(C(=O)N[C@@H](Cc2ccccc2)C[C@H](O)[C@H](Cc2ccccc2)NC(=O)OCc2cccnc2)C(C)C)co1 (some centres undefined)
- half-life (in vivo [1]): 13.2 min
- Tmax (in vivo [2]): 15 min
- AUC (in vivo [3]): 1100 ng·h/mL
- Cmax (in vivo [4]): 2130 nM
- bioavailability [5]: 18%

Compound: CC(C)c1nc(CN(C)C(=O)NC(C(=O)N[C@@H](Cc2ccccc2)[C@@H](O)C[C@H](Cc2ccccc2)NC(=O)OCc2cccnc2)C(C)C)co1 (some centres undefined)
- half-life (in vivo [1]): 17.4 min
- Tmax (in vivo [2]): 6 min
- AUC (in vivo [3]): 90 ng·h/mL
- Cmax (in vivo [4]): 290 nM
- bioavailability [5]: 3.3%

Compound: CC(C)C(NC(=O)OCc1ccccn1)C(=O)N[C@@H](Cc1ccccc1)[C@@H](O)C[C@H](Cc1ccccc1)NC(=O)OCc1ccoc1 (some centres undefined)
- Tmax (in vivo [2]): 16.8 min
- AUC (in vivo [3]): 230 ng·h/mL
- T1/2 (Rattus norvegicus): Not soluble
- Cmax (in vivo [4]): 250 nM

Compound: CC(C)C(NC(=O)OCc1csc(N2CCOCC2)n1)C(=O)N[C@@H](Cc1ccccc1)C[C@H](O)[C@H](Cc1ccccc1)NC(=O)OCc1cncs1 (some centres undefined)
- Tmax (in vivo [2]): 6 min
- AUC (in vivo [3]): 40 ng·h/mL
- T1/2 (Rattus norvegicus): Not soluble
- Cmax (in vivo [4]): 170 nM

Compound: CC(C)C(NC(=O)OCc1csc(N2CCOCC2)n1)C(=O)N[C@@H](Cc1ccccc1)[C@@H](O)C[C@H](Cc1ccccc1)NC(=O)OCc1cncs1 (some centres undefined)
- T1/2 (Rattus norvegicus): Not soluble

Compound: Cc1ncsc1CCOC(=O)NC(C(=O)N[C@@H](Cc1ccccc1)C[C@H](O)[C@H](Cc1ccccc1)NC(=O)OCc1cccnc1)C(C)C (some centres undefined)
- AUC (in vivo [3]): 1530 ng·h/mL
- T1/2 (Rattus norvegicus): Not soluble
- Cmax (in vivo [4]): 960 nM

Compound: Cc1cncc(COC(=O)NC(C(=O)N[C@@H](Cc2ccccc2)C[C@H](O)[C@H](Cc2ccccc2)NC(=O)OCc2cccnc2)C(C)C)n1 (some centres undefined)
- half-life (in vivo [1]): 69 min
- Tmax (in vivo [2]): 6 min
- AUC (in vivo [3]): 640 ng·h/mL
- Cmax (in vivo [4]): 1330 nM
- bioavailability [5]: 10%

Compound: COc1ccc(COC(=O)NC(C(=O)N[C@@H](Cc2ccccc2)C[C@H](O)[C@H](Cc2ccccc2)NC(=O)OCc2cccnc2)C(C)C)cn1 (some centres undefined)
- half-life (in vivo [1]): 19.8 min
- Tmax (in vivo [2]): 6 min
- AUC (in vivo [3]): 30 ng·h/mL
- Cmax (in vivo [4]): 190 nM
- bioavailability [5]: 0.7%

Compound: CC(C)C(NC(=O)OCc1nccs1)C(=O)N[C@@H](Cc1ccccc1)[C@@H](O)C[C@H](Cc1ccccc1)NC(=O)OCc1cccnc1 (some centres undefined)
- half-life (in vivo [1]): 32.4 min
- Tmax (in vivo [2]): 10.8 min
- AUC (in vivo [3]): 2050 ng·h/mL
- Cmax (in vivo [4]): 3330 nM
- bioavailability [5]: 35%

Compound: CC(C)c1nc(CN(C(=O)NCCC(=O)N[C@@H](Cc2ccccc2)[C@@H](O)C[C@H](Cc2ccccc2)NC(=O)OCc2cncs2)C2CC2)cs1
- half-life (in vivo [1]): 20.4 min
- Tmax (in vivo [2]): 16.8 min
- AUC (in vivo [3]): 400 ng·h/mL
- Cmax (in vivo [4]): 650 nM
- bioavailability [5]: 9.4%

Compound: CC(C)c1nc(COC(=O)NC(C(=O)N[C@@H](Cc2ccccc2)[C@@H](O)C[C@H](Cc2ccccc2)NC(=O)OCc2cccnc2)C(C)C)cs1 (some centres undefined)
- half-life (in vivo [1]): 40.8 min
- Tmax (in vivo [2]): 15 min
- AUC (in vivo [3]): 220 ng·h/mL
- Cmax (in vivo [4]): 470 nM
- bioavailability [5]: 3%

Compound: CC(C)C(NC(=O)OCc1ccccn1)C(=O)N[C@@H](Cc1ccccc1)[C@@H](O)C[C@H](Cc1ccccc1)NC(=O)OCc1cncs1 (some centres undefined)
- Tmax (in vivo [2]): 8.4 min
- AUC (in vivo [3]): 1490 ng·h/mL
- T1/2 (Rattus norvegicus): Not soluble
- Cmax (in vivo [4]): 2980 nM

Compound: Cc1ccc(CN(C)C(=O)NC(C(=O)N[C@@H](Cc2ccccc2)[C@@H](O)C[C@H](Cc2ccccc2)NC(=O)OCc2cccnc2)C(C)C)cn1 (some centres undefined)
- half-life (in vivo [1]): 26.4 min
- Tmax (in vivo [2]): 6 min
- AUC (in vivo [3]): 290 ng·h/mL
- Cmax (in vivo [4]): 1220 nM
- bioavailability [5]: 6.7%

Compound: CC(C)c1nc(CN(C)C(=O)NC(C(=O)N[C@@H](Cc2ccccc2)C[C@H](O)[C@H](Cc2ccccc2)NC(=O)OCc2cncs2)C(C)C)cs1 (some centres undefined)
- half-life (in vivo [1]): 72 min
- Tmax (in vivo [2]): 120 min
- AUC (in vivo [3]): 7750 ng·h/mL
- Cmax (in vivo [4]): 2620 nM
- bioavailability [5]: 78%

Compound: CC(C)c1nc(COC(=O)NC(C(=O)N[C@@H](Cc2ccccc2)C[C@H](O)[C@H](Cc2ccccc2)NC(=O)OCc2cccnc2)C(C)C)cs1 (some centres undefined)
- half-life (in vivo [1]): 14.4 min
- Tmax (in vivo [2]): 6 min
- AUC (in vivo [3]): 50 ng·h/mL
- Cmax (in vivo [4]): 210 nM
- bioavailability [5]: 1.6%

Compound: CC(C)C(NC(=O)OCc1cnccn1)C(=O)N[C@@H](Cc1ccccc1)[C@@H](O)C[C@H](Cc1ccccc1)NC(=O)OCc1cccnc1 (some centres undefined)
- half-life (in vivo [1]): 13.8 min
- Tmax (in vivo [2]): 12 min
- AUC (in vivo [3]): 210 ng·h/mL
- Cmax (in vivo [4]): 1030 nM
- bioavailability [5]: 4.5%

Compound: CCN(Cc1csc(C(C)C)n1)C(=O)NC(C(=O)N[C@@H](Cc1ccccc1)C[C@H](O)[C@H](Cc1ccccc1)NC(=O)OCc1cncs1)C(C)C (some centres undefined)
- Tmax (in vivo [2]): 228 min
- AUC (in vivo [3]): 9850 ng·h/mL
- T1/2 (Rattus norvegicus): Not soluble
- Cmax (in vivo [4]): 3330 nM

Compound: CC(C)C(NC(=O)N(C)Cc1ccccn1)C(=O)N[C@@H](Cc1ccccc1)C[C@H](O)[C@H](Cc1ccccc1)NC(=O)OCc1cncnc1 (some centres undefined)
- half-life (in vivo [1]): 52.2 min
- Tmax (in vivo [2]): 18 min
- AUC (in vivo [3]): 220 ng·h/mL
- Cmax (in vivo [4]): 910 nM
- bioavailability [5]: 5.1%

Compound: Cc1cccc(COC(=O)NC(C(=O)N[C@@H](Cc2ccccc2)C[C@H](O)[C@H](Cc2ccccc2)NC(=O)OCc2ccoc2)C(C)C)n1 (some centres undefined)
- Tmax (in vivo [2]): 8.4 min
- AUC (in vivo [3]): 20 ng·h/mL
- T1/2 (Rattus norvegicus): Not soluble
- Cmax (in vivo [4]): 160 nM

Compound: CCN(Cc1csc(C(C)C)n1)C(=O)NC(C)C(=O)N[C@@H](Cc1ccccc1)C[C@H](O)[C@H](Cc1ccccc1)NC(=O)OCc1cncs1 (some centres undefined)
- T1/2 (Rattus norvegicus): Not soluble
- bioavailability [5]: 0%

Compound: CC(C)C(NC(=O)N(C)Cc1csc(C(C)(C)C)n1)C(=O)N[C@@H](Cc1ccccc1)C[C@H](O)[C@H](Cc1ccccc1)NC(=O)OCc1cccnc1 (some centres undefined)
- half-life (in vivo [1]): 17.4 min
- Tmax (in vivo [2]): 19.8 min
- AUC (in vivo [3]): 230 ng·h/mL
- Cmax (in vivo [4]): 380 nM
- bioavailability [5]: 5.3%

Compound: COCc1ncc(COC(=O)NC(C(=O)N[C@@H](Cc2ccccc2)C[C@H](O)[C@H](Cc2ccccc2)NC(=O)OCc2cccnc2)C(C)C)s1 (some centres undefined)
- half-life (in vivo [1]): 16.2 min
- Tmax (in vivo [2]): 6 min
- AUC (in vivo [3]): 20 ng·h/mL
- Cmax (in vivo [4]): 120 nM
- bioavailability [5]: 0.6%

Compound: Cc1ncc(CN(C)C(=O)NC(C(=O)N[C@@H](Cc2ccccc2)[C@@H](O)C[C@H](Cc2ccccc2)NC(=O)OCc2cccnc2)C(C)C)nc1C (some centres undefined)
- half-life (in vivo [1]): 18 min
- Tmax (in vivo [2]): 9 min
- AUC (in vivo [3]): 550 ng·h/mL
- Cmax (in vivo [4]): 1520 nM
- bioavailability [5]: 17%

Compound: CC(C)C(NC(=O)N(C)Cc1cscn1)C(=O)N[C@@H](Cc1ccccc1)[C@@H](O)C[C@H](Cc1ccccc1)NC(=O)OCc1cccnc1 (some centres undefined)
- half-life (in vivo [1]): 84 min
- Tmax (in vivo [2]): 22.2 min
- AUC (in vivo [3]): 1660 ng·h/mL
- Cmax (in vivo [4]): 3130 nM
- bioavailability [5]: 35%

Compound: CC(C)c1nc(CCOC(=O)NC(C(=O)N[C@@H](Cc2ccccc2)[C@@H](O)C[C@H](Cc2ccccc2)NC(=O)OCc2cncs2)C(C)C)cs1 (some centres undefined)
- T1/2 (Rattus norvegicus): Not soluble
- bioavailability [5]: 0%

Compound: COc1ccc(COC(=O)NC(C(=O)N[C@@H](Cc2ccccc2)[C@@H](O)C[C@H](Cc2ccccc2)NC(=O)OCc2cccnc2)C(C)C)nc1 (some centres undefined)
- half-life (in vivo [1]): 27.6 min
- Tmax (in vivo [2]): 12 min
- AUC (in vivo [3]): 380 ng·h/mL
- Cmax (in vivo [4]): 1200 nM
- bioavailability [5]: 7.7%

Compound: CC(C)c1nc(COC(=O)NC(C(=O)N[C@@H](Cc2ccccc2)[C@@H](O)C[C@H](Cc2ccccc2)NC(=O)OCc2cncs2)C(C)C)cs1 (some centres undefined)
- T1/2 (Rattus norvegicus): Not soluble
- bioavailability [5]: 0%

Compound: CC(C)c1nc(COC(=O)NC(C(=O)N[C@@H](Cc2ccccc2)C[C@H](O)[C@H](Cc2ccccc2)NC(=O)OCc2cncs2)C(C)C)cs1 (some centres undefined)
- Tmax (in vivo [2]): 6 min
- AUC (in vivo [3]): 10 ng·h/mL
- T1/2 (Rattus norvegicus): Not soluble
- Cmax (in vivo [4]): 40 nM

Compound: CC(NC(=O)N(Cc1csc(C(C)C)n1)C1CC1)C(=O)N[C@@H](Cc1ccccc1)C[C@H](O)[C@H](Cc1ccccc1)NC(=O)OCc1cncs1 (some centres undefined)
- half-life (in vivo [1]): 36.6 min
- Tmax (in vivo [2]): 108 min
- AUC (in vivo [3]): 12000 ng·h/mL
- Cmax (in vivo [4]): 5190 nM
- bioavailability [5]: 76%
